Test results: patent publication US5972942A, “Inhibitors of farnesyl-protein transferase” (Merck & Co., Inc., priority 1997, dated 1999)
Where a name gives a salt, the structure may show the parent alone.

Target: T1, human FPTase (Homo sapiens, UniProt P49354+P49356)
T1 construct: made in house
Assay: In vitro inhibition of ras farnesyl transferase (human FPTase assay)
Format: biochemical
Conditions: 100 nM Ras-CVIM, [3H]-farnesyl diphosphate, 30 min, read-out: IC50, inhibitory activity against human FPTase

T1 sequence (P49356 whole entry, one chain of several): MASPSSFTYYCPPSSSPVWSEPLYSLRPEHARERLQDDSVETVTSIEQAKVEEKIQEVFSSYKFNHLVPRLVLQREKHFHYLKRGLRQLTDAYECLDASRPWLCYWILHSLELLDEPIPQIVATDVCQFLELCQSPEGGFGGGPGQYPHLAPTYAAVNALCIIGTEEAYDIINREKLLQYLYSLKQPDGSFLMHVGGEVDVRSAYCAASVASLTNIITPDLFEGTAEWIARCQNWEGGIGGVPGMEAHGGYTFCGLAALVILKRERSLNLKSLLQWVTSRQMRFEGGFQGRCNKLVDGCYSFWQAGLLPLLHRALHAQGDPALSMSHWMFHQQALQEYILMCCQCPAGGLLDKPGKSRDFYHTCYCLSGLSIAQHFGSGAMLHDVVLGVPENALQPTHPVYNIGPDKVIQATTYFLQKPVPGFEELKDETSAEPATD

- IC50: ≤ 50 µM
Structure (SMILES): CCCC[C@H]1CN(CC(F)(F)F)C(=O)CN1Cc1cncn1Cc1ccc(C#N)cc1 [Example 1, 2(S)-n-Butyl-1-[1-(4-cyanobenzyl)-5-imidazolylmethyl]-4-(2,2,2-trifluoroethyl)piperazin-5-one dihydrochloride]
